In ChEMBL document CHEMBL3991601, “The target landscape of clinical kinase drugs” (Science, 2017) one finds Kd data, which are given here for three compounds.

For assay [1], the target named is ALK tyrosine kinase receptor (Homo sapiens, UniProt Q9UM73). It counts as subcellular, K-562, COLO 205, SK-N-BE(2) and MV-4-11, Cell lysate. The settings on record: read-out: Kd apparent.
The target in assay [2] is T1, Tyrosine-protein kinase Mer (Homo sapiens, UniProt Q12866).
T1 sequence (Q12866 whole entry): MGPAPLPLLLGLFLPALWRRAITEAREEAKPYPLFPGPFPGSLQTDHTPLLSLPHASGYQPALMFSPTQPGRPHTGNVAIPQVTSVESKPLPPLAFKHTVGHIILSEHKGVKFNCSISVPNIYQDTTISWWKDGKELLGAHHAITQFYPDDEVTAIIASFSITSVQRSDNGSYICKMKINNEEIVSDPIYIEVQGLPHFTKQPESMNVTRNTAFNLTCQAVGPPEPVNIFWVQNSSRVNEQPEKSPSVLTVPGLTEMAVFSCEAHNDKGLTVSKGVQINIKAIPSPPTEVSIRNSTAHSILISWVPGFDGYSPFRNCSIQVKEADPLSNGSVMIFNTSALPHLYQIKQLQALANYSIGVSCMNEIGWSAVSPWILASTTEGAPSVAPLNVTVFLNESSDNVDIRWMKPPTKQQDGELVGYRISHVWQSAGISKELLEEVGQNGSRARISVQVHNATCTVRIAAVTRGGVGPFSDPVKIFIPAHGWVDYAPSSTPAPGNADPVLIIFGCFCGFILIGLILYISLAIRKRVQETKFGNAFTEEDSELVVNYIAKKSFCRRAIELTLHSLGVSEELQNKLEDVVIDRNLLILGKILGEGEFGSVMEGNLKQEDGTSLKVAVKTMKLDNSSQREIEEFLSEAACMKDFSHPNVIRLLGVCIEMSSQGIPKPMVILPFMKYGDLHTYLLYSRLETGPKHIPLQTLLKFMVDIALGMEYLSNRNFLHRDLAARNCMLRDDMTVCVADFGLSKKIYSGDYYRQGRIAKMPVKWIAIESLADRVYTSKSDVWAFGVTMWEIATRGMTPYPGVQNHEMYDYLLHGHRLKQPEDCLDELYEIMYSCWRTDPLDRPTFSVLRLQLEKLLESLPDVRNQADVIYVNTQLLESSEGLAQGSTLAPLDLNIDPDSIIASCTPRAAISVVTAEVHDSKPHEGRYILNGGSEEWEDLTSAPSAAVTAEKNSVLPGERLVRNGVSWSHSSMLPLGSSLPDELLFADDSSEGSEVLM

The target in assay [3] is 5'-AMP-activated protein kinase subunit gamma-1 (Homo sapiens, UniProt P54619).
Chain of 5'-AMP-activated protein kinase subunit gamma-1 (P54619 whole entry): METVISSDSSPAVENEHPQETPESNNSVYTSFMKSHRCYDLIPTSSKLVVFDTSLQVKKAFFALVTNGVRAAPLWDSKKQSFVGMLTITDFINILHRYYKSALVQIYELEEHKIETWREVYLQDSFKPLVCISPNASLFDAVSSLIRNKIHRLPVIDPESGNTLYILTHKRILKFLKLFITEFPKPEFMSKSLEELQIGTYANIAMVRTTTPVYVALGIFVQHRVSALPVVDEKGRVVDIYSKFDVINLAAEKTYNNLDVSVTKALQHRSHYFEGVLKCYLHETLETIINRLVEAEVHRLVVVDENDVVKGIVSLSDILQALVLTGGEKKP
Assay [4] has as its target 5'-AMP-activated protein kinase subunit gamma-2 (Homo sapiens, UniProt Q9UGJ0).
In assay [5] the target is T2, Uncharacterized protein FLJ45252 (Homo sapiens, UniProt Q6ZSR9).
T2 sequence (Q6ZSR9 whole entry): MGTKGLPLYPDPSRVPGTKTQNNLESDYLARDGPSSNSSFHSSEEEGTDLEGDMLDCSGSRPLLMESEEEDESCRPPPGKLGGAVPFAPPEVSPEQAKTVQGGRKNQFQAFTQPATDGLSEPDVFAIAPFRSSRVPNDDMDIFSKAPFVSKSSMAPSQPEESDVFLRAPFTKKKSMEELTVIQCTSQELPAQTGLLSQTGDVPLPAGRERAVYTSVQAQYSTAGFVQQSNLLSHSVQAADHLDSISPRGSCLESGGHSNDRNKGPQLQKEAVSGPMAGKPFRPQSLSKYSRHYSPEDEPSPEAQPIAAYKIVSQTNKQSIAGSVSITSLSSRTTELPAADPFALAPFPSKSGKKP

Assay [6] addresses Serine/threonine-protein kinase 38-like (Homo sapiens, UniProt Q9Y2H1).
For assay [7], the target named is Eukaryotic peptide chain release factor GTP-binding subunit ERF3B (Homo sapiens, UniProt Q8IYD1).
Chain of Eukaryotic peptide chain release factor GTP-binding subunit ERF3B (Q8IYD1 whole entry): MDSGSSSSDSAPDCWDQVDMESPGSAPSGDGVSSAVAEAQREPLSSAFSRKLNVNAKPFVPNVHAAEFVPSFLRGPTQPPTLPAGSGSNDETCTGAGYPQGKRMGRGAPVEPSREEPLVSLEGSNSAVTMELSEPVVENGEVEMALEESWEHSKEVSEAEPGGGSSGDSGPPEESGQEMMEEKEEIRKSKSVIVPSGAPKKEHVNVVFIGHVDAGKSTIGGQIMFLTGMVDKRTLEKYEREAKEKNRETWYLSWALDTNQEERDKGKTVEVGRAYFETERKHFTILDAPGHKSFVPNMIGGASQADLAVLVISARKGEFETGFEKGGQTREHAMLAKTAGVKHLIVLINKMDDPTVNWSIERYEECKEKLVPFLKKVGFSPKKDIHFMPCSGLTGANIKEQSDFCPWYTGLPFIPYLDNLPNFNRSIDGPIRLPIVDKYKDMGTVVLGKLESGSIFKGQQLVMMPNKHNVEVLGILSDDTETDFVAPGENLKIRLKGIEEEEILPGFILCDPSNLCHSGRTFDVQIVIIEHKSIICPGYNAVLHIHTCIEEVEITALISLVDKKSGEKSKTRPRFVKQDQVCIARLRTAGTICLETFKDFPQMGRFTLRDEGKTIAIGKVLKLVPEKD
Assay [8] concerns the target Nucleoside diphosphate kinase B (Homo sapiens, UniProt P22392).
For assay [9], the target named is Putative nucleoside diphosphate kinase (Homo sapiens, UniProt O60361).
Chain of Putative nucleoside diphosphate kinase (O60361 whole entry): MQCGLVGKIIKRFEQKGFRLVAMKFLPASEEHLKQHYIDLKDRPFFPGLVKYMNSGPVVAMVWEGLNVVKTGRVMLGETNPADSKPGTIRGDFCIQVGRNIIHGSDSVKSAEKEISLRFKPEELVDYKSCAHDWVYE
In assay [10] the target is Serine/threonine-protein kinase 38 (Homo sapiens, UniProt Q15208).
Chain of Serine/threonine-protein kinase 38 (Q15208 whole entry): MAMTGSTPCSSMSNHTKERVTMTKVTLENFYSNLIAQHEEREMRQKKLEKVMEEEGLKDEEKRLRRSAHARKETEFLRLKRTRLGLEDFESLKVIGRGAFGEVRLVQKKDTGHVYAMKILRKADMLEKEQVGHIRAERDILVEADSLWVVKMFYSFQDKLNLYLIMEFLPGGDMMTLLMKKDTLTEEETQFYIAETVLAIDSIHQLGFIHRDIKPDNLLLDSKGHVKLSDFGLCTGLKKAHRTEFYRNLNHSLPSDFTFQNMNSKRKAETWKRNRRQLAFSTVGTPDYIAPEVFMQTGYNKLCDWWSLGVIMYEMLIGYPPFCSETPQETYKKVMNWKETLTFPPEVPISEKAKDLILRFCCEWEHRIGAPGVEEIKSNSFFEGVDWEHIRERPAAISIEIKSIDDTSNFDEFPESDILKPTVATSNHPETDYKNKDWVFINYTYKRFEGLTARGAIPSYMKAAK

The source made the active and inactive calls. Unless noted, the rule behind the calls is not given here. Bounds are passed on as bounds.

Chain of 5'-AMP-activated protein kinase subunit gamma-2 (Q9UGJ0 whole entry): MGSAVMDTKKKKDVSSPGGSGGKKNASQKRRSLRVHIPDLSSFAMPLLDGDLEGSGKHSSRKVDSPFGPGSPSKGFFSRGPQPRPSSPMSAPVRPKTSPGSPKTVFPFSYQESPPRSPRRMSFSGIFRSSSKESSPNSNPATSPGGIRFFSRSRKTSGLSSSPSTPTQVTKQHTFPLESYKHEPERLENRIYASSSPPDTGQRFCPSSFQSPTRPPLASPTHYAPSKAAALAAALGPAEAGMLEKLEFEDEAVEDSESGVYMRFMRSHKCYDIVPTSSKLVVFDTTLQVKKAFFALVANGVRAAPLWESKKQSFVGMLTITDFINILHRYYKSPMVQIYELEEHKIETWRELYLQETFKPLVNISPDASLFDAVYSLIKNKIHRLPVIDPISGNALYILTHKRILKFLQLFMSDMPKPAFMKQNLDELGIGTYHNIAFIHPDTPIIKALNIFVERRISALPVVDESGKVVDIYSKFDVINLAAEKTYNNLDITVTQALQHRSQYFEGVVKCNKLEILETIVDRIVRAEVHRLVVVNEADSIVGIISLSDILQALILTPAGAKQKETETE
Chain of ALK tyrosine kinase receptor (Q9UM73 whole entry): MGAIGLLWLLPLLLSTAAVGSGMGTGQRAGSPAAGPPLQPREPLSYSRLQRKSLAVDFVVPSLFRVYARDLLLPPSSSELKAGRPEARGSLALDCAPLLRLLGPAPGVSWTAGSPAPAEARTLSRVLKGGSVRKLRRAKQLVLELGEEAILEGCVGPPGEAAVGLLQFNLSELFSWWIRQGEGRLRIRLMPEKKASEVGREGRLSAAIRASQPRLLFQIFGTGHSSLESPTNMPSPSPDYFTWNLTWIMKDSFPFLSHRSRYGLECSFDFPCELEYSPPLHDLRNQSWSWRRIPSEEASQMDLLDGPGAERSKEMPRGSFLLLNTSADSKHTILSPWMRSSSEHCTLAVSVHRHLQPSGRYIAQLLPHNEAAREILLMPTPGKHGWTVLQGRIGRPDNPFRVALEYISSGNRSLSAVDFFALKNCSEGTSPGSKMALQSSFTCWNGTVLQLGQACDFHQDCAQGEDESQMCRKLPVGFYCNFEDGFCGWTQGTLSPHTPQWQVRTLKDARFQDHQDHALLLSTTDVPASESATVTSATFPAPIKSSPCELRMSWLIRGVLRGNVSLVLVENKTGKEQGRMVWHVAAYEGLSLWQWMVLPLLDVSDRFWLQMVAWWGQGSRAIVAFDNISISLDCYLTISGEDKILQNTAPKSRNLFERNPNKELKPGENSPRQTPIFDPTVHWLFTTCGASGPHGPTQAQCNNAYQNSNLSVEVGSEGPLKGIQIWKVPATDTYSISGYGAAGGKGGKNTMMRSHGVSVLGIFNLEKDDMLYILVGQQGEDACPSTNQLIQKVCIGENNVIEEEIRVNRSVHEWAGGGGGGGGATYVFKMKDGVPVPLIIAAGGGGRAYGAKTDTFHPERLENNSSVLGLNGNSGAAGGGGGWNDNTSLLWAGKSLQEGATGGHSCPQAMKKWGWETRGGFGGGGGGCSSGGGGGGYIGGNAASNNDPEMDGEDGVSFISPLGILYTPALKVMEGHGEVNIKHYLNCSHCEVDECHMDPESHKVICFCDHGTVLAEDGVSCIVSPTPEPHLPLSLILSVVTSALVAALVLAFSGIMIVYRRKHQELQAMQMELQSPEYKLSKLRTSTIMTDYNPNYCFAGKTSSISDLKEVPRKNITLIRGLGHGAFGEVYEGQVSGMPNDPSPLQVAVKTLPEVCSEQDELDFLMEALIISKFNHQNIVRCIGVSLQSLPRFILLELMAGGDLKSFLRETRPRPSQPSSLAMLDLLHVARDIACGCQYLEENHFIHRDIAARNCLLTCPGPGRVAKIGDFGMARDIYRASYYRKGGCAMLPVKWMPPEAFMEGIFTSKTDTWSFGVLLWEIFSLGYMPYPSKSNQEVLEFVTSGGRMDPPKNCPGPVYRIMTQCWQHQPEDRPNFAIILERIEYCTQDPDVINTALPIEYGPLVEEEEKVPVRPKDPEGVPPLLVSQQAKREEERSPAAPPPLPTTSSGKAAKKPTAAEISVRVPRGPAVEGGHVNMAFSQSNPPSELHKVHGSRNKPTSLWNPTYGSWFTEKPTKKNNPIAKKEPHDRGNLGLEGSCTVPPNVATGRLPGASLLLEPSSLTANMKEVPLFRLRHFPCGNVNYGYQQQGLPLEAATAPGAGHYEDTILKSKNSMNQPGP
Chain of Nucleoside diphosphate kinase B (P22392 whole entry): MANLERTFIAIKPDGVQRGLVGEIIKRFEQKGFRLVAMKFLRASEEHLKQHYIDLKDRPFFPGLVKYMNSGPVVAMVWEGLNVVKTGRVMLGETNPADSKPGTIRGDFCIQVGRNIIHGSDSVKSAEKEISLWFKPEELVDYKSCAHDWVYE
Chain of Serine/threonine-protein kinase 38-like (Q9Y2H1 whole entry): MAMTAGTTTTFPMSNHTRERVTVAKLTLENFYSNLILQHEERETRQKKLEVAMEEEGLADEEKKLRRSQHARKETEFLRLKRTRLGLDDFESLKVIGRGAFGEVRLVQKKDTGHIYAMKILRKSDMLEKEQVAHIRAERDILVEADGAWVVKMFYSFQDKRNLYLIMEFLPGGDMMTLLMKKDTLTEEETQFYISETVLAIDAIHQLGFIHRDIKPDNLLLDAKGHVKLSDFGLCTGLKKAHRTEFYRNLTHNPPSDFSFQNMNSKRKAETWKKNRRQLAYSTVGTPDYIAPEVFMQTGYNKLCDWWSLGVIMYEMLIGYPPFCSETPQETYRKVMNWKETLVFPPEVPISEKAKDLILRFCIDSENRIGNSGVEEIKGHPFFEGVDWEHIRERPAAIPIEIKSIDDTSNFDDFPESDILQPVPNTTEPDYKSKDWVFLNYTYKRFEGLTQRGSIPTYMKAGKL

For `FC(F)(F)c1ccc(CNc2ccc(Cc3c[nH]c4ncc(Cl)cc34)cn2)cn1` [PEXIDARTINIB], the Kd in assay [1] is > 30 µM (inactive); in assay [2] it was > 30 µM (inactive); in [3] it was > 30 µM (inactive); in assay [4] it was > 30 µM (inactive); in [5], 1.45 µM (active); in assay [6], > 30 µM (inactive).

As to `C=CC(=O)Nc1cc(Nc2nccc(-c3cn(C)c4ccccc34)n2)c(OC)cc1N(C)CCN(C)C` [OSIMERTINIB], the Kd in assay [7], in assay [8], in assay [9], in assay [3], in [4] and in assay [5] was > 30 µM (inactive) each time. For the same compound, in [10], the Kd was > 30 µM (inactive).

Take `COc1cc2c(Oc3ccc4[nH]c(C)cc4c3F)ncnc2cc1OCCCN1CCCC1` [CEDIRANIB]: the Kd in assay [3], in [4] and in assay [5] was > 30 µM (inactive) in each case.
